The values below come from ChEMBL document CHEMBL1151292, “Antineoplastic activity and cytotoxicity of flavones, isoflavones, and flavanones” (1979).

One assay concerns CCRF S-180. The experiment in a line: In vivo antitumor activity against mouse S180 cells. The class given is functional, organism-based.
The next assay relates to L1210. The experiment in a line: In vivo antitumor activity against mouse L1210 cells. The class given is functional, organism-based.
The next assay has as its system KB. The experiment in a line: Cytotoxicity against human KB cells. Conditions: read-out: ED50 (the source's name). The class given is functional.
Assay [1] concerns Lewis lung carcinoma cell line. The experiment in a line: In vivo antitumor activity against mouse LLC cells. The class given is functional, organism-based.
A further assay concerns P388. The experiment in a line: In vivo antitumor activity against mouse P388 cells. The class given is functional, organism-based.
In another assay the test system is B16. The experiment in a line: In vivo antitumor activity against mouse B16 carcinoma cells. In kind it is functional, organism-based.
The next assay relates to Rattus norvegicus. The experiment in a line: In vivo antitumor activity against rat dunning leukemia cells. The class given is functional, organism-based.
The subject of a further assay is P1798. The experiment in a line: In vivo antitumor activity against mouse P1798 cells. In kind it is functional, organism-based.
The test system of a further assay is CA-755. The experiment in a line: In vivo antitumor activity against mouse CA-755 cells. The class given is functional, organism-based.
A further assay has as its system FV. The experiment in a line: In vivo antitumor activity against mouse FV cells. The class given is functional, organism-based.
In another assay the test system is Walker 256. The experiment in a line: In vivo antitumor activity against rat Walker 256 cells. The class given is functional, organism-based.
The test system of a further assay is PX. The experiment in a line: In vivo antitumor activity against hamster PX cells. In kind it is functional, organism-based. The note with it: Cricetinae.
The next assay deals with P1. The experiment in a line: In vivo antitumor activity against hamster P1 cells. The class given is functional, organism-based. Conditions: Cricetinae.

Values after ≈ are worked out from the molar mass of the structure shown. Active and inactive are the calls of the source. Some results are limits rather than exact numbers.

Consider `COc1ccc(-c2cc(=O)c3c(O)cc(OC)cc3o2)cc1` [APIGENIN DIMETHYLETHER], for which the outcome (in the assay with CCRF S-180; with L1210; in assay [1]; in the assay on P388) was inactive. Further, in the assay on KB, the EC50 was 45 µg/mL (≈ 151 µM).
For the compound `Cc1ccc2oc(-c3ccccc3)c(O)c(=O)c2c1`, the outcome in the assay on CCRF S-180, with L1210, with B16 and in the assay with P388 was inactive. In the assay on KB, the EC50 was found to be 2 µg/mL (≈ 7.93 µM).
On to `O=c1cc(-c2ccc(O)cc2)oc2cc(O)cc(O)c12` [APIGENIN], for which the outcome in the assay on L1210, in the assay with Rattus norvegicus and in the assay with P1798 was inactive. The EC50 in the assay on KB was found to be 7.4 µg/mL (≈ 27.4 µM).
With `O=c1c(O)c(-c2ccc(O)c(O)c2)oc2cc(O)ccc12` [FISETIN], the result (with CCRF S-180; with L1210; in [1]; in the assay with P388) was inactive. Further, the EC50 in the assay on KB is over 100 µg/mL.
With `O=c1c(O)c(-c2ccccc2)oc2ccccc12` [FLAVONOL], the outcome (in the assay with CCRF S-180; in the assay on L1210; with CA-755; with B16; in assay [1]; in the assay on P388) was inactive. Besides, the EC50 with KB came to 0.2 µg/mL (≈ 0.839 µM).
In the case of `COc1ccc(-c2cc(=O)c3c(O)cc(O)cc3o2)cc1` [ACACETIN], the outcome in the assay with CCRF S-180, in the assay on L1210, in the assay on CA-755 and with P388 was inactive. The EC50 with KB was over 100 µg/mL.
As to `COc1cccc(OC)c1-c1oc2ccccc2c(=O)c1O`, the outcome with CCRF S-180, with L1210, with FV and with P388 was inactive. Besides, the EC50 in the assay with KB came out at 1 µg/mL (≈ 3.35 µM).
For the compound `COc1cc(O)c2c(=O)cc(-c3ccccc3)oc2c1` [TECHTOCHRYSIN], the outcome with L1210, with Rattus norvegicus and in the assay with P1798 was inactive. For the same compound, in the assay with KB, the EC50 is 49 µg/mL (≈ 183 µM).
For the compound `COc1ccc(-c2cc(=O)c3c(O)c(OC)c(O)cc3o2)cc1` [PECTOLINARIGENIN], the result in the assay with CCRF S-180, with Walker 256, in the assay on L1210 and in the assay on P388 was inactive. Besides, the EC50 in the assay with KB is 3 µg/mL (≈ 9.55 µM).
For the compound `COc1ccc(-c2cc(=O)c3c(OC)c(OC)c(OC)c(OC)c3o2)cc1` [TANGERETIN], the outcome in the assay on CCRF S-180, with L1210, with CA-755 and with P1 was inactive. Besides, in the assay on KB, the EC50 is 15 µg/mL (≈ 40.3 µM). For the same compound, in the assay on PX, the outcome was Active.
In the case of `O=c1c(O)c(-c2ccc(O)cc2O)oc2cc(O)cc(O)c12`, the result in the assay with CCRF S-180, in the assay with L1210, in the assay with CA-755 and with P388 was inactive.
Regarding `O=c1c(O[C@@H]2O[C@H](CO)[C@@H](O)[C@H](O)[C@H]2O)c(-c2ccc(O)c(O)c2)oc2cc(O)cc(O)c12` [ISOQUERCETIN], the outcome in the assay with CCRF S-180, in the assay with Walker 256, in the assay on L1210, in the assay on CA-755 and in the assay on P388 was inactive. In addition, the EC50 with KB is over 100 µg/mL.
Take `O=c1c(O)c(-c2cc(O)c(O)c(O)c2)oc2cc(O)cc(O)c12` [MYRICETIN]: the outcome in the assay with L1210 and with B16 was inactive. Moreover, the EC50 with KB was 15 µg/mL (≈ 47.1 µM).
